{"source": "patent US20050106258A1", "about": "“Pharmacology and manufacturing method of Bombyx moriL related bioproduct” (priority 2003, published 2005)", "key": {"cGMP [1]": {"test_system": "cGMP", "experiment": "cGMP content in rat cavernous body (125I-cGMP RIA)", "format": "in vivo, rats", "settings": "1.5 hours after administration", "description": "(§1) According to the aim of the experiment, IRA was performed to estimate cGMP content in plasma and cavernous boby of 50 male rats which were administrated by 2 dosages of […] product mainly consisting of bombyx moriL in our ladoratory. Change caused by […] product mainly consisting of bombyx moriL at 1.5 hours after administration was wholly observed. I. Rats: 50 healthy rats were randomly divided into 5 groups, every group is 10 rats 1. Product Mainly Consisting of Bombyx moriL Group: there were two dosage group 200 mg/kg, 400 mg/kg. 2. Viagra Group: two group, 6 mg/kg, 12 mg/kg. 3. Control Group: NS, 0.4 ML/rat. Medicine Dispensing: Viagra and Product Mainly Consisting of Bombyx moriL was dissolved by certain mount of NS. Administration Method: All Group was e.g. for One Time. […] Our laboratory used 125I-cGMP-RIA kit by Isotope Laboratory, detecting Method was double antiboby radioimmune method. The experiment sensitivity is 0.008 pmol/ml, most combination rate of detection is 82.7%,non […] combination rate is 5.0%."}, "cGMP [2]": {"test_system": "cGMP", "experiment": "cGMP content in rat plasma (125I-cGMP RIA)", "format": "in vivo, rats", "settings": "1.5 hours after administration, P < 0.001 vs control (2.59 ± 0.48)", "description": "as §1, with “Time. Anticoagulant 50 u l EDTA was added into blood test tube.lml blood was taken in rat's veniplex orbita posterior. Test tubes was stood in ice-water mixture and were centrifugated 200 rpm for 10 minutes.” for “Time.”"}, "normal males [3]": {"test_system": "normal males", "experiment": "Arterial blood flow rate of corpus cavernosum penis of normal males (Doppler color ultrasound)", "format": "in vivo", "settings": "for MAX blood flow rate, change 1 h after administration, X ± SD: P < 0.001; for increasement of MAX (cavernous arterial maximal blood flow rate): 1 hour after administration vs before", "from_the_text": "AIM: The physiological mechanism of penile erection expresses that NO is excreted in the cavernosum during sexual extraction, whose direct function is to activate GC, which catalyzes GPT to cGMP, so the smooth muscle of cavernosum is relax, and the inflowed blood volume is increased, then penis is erected. In this experiment, Doppler color-ultrasound instrument was used to observe the influence of product mainly consisting of bombyx moriL and viagra on the arterial blood flow rate of corpus cavernosum penis of normal males, to estimate the alternation of inflowed blood volume of cavernosum.\nTested Medicie: No.981005, light-blue capsule, 200 mg/capsule.\nSildenafilcitrate, viagra: light-blue rhombic table, 100 mg/tablet. The tablet was triturated to fine powder, and amylum was added. After adequate mixture, the powder was filled into 200 mg capsule. (The same specification as product mainly consisting of bombyx moriL).There was 50 mg sildenafilcitrate in every 8 capsules.\n(§2) Subjects: 46 normal males, age 23-29, provided.\n(§3) Methods: Double-blind, auto-control and mutual control design. The influence of the two medicines on arterial blood flow rate of cavernosum was contrasted, Based on ages, the objects were randonmly divided into 4 groups, and there were 11-12 people in one group. Before administration, arterial blood flow of corpus cavernosum penis was estimated respectively by Doppler color ultrasound instrument (Acuson, American, 128×p/10 c),and blood pressure was also measured. Then 2 groups were respectively given high dosage Medicine, that is, 8 capsules product mainly consisting of bombyx moriL and 8 capsules of viagra, and the dose-effect relationship was observed. Blood pressure and cavernous arterial blood flow of every group were estimated respectively at I and 2 hours after administration, and the time-effect relationship of product mainly consisting of bombyx moriL and viagra was observed. Whether the alternation before and after administration and the difference between groups were significant was convinced here."}, "nitric oxide (NO)": {"test_system": "nitric oxide (NO)", "experiment": "Nitric oxide contents in the corpora cavernosa of penis in male rats (nitrate reductase method)", "format": "in vivo", "from_the_text": "It has been approved in literatures that nitric oxide (NO) is formed in the endothelial cells in blood vessels and NO plays as an important signal transmitter in many physical activities of the human body. Nitric Oxide exists in many organs and tissues such as brain, blood vessels, liver, lung, pancreas, immune and reproductive systems. On the basis of No on wide-ranging regulative activities in the human physiological process, the Nitric Oxide contents, in the Sera and the Corpora Cavernosa of Penis in 50 normal male rats, were measured by nitrate reductase method for two dosages of product mainly consisting of bombyx moriL and Sildenafil Citrate(Viagra).On a half and one hour after the drug administrations, the variations of NO content were compared with the two drugs treated animals as a whole situation. The results are: (1) In the rat serum of the tested drug groups, there are distinct NO content differences with statistical […] compared the No contents of the low dosage groups of the two drugs with the control group's, and there are very distinct NO content differences with statistical significance (p<0.001) in the high dosage groups of the two drugs. […]"}, "normal males [4]": {"test_system": "normal males", "experiment": "Blood pressure of normal males", "format": "in vivo", "settings": "for Systolic Pressure, change 1 h after administration, X ± SD: P < 0.01", "from_the_text": "as §2, §3"}, "[5]": {"test_system": "5′ Nucleotide Phosphodiesterase isoenzyme (isoenzyme V) in corpus cavernosum tissue", "experiment": "5′ Nucleotide Phosphodiesterase isoenzyme bands in rat corpus cavernosum tissue after oral dosing (polyacrylamide gel electrophoresis, laser scanning)", "format": "in vivo, rats", "settings": "P < 0.05 vs blank comparison (0.495 ± 0.328)", "description": "Take 50 healthy male rats with body weight of 230±10.4 g, divide them into five groups at random, with 10 rats each group.\n(1) The product mainly consisting of bombyx moriL test drug group: 200mg/kg and 400mg/kg two dose groups\n(2) The positive comparison drug viagra group: 6 mg/kg and 12 mg/kg two dose groups\n(3) The blank comparison group: normal saline 0.4 ml/per animal\nPreparation of drug: After product mainly consisting of bombyx moriL and viagra are dissolved with quanitative normal saline, then use them.\nDrug feeding way: Feed medicine to all groups of animal once.\nTake corpus cavernosum 10 mg, put into the tissue lapping homogenate container, add 0.05M PH7.4 phosphoric acid buffering agent liquid of 0.2 ml homogenate into the ice bath, and lastly add to 10 ml to prepare homogenate liquid with concentration of 1 mg/n ml. Centrifuge by 20 min. at temperature 4° C., 3000 r/min, then take the supernatant liquid for use.\n(1) Take 5′ Nucleotide Phosphodiesterase in the amount enough to dissolve phosphoric acid dieter bond by water, under the effecting of the bottom substance of 5′-[5-iodine indoxyl-(3)] thymidine acid ammonium salt, get iodine sub-indoxyl, it can be oxidized in air and generating violet 5.5′,by using -diuodoindigo principle to examine enzyme activity. […]"}, "[6]": {"settings": "Viagra 25 mg, n=11, before administration 1.09 ± 0.30"}, "[7]": {"settings": "Viagra 25 mg, n=11, before administration 3.24 ± 1.02"}, "[8]": {"settings": "Viagra 50 mg, n=12, before administration 1.25 ± 0.62"}, "[9]": {"settings": "Viagra 50 mg, n=12, before administration 3.37 ± 0.79"}, "[10]": {"settings": "Viagra 25 mg, n=11, before administration 81.8 ± 6.4"}, "[11]": {"settings": "Viagra 25 mg, n=11, before administration 120.5 ± 10.6"}, "[12]": {"settings": "Viagra 50 mg, n=12, before administration 78.6 ± 10.7"}, "[13]": {"settings": "Viagra 50 mg, n=12, before administration 117.7 ± 9.8"}}, "note": "Counter-ions that a name gives are not always drawn."}
{"molecule": "CCCc1nn(C)c2c(=O)[nH]c(-c3cc(S(=O)(=O)N4CCN(C)CC4)ccc3OCC)nc12", "note": "[Viagra, Sildenafil citrate]", "values": [{"measurement": "cGMP content in cavernous body, X ± SD", "setting": "cGMP [1]; Viagra 6 mg/kg, P < 0.1 vs control (0.25 ± 0.05)", "result": "0.40 ± 0.26", "unit": "pmol/mL"}, {"measurement": "cGMP content in cavernous body, X ± SD", "setting": "cGMP [1]; Viagra 12 mg/kg, P < 0.001 vs control (0.25 ± 0.05)", "result": "0.53 ± 0.12", "unit": "pmol/mL"}, {"measurement": "cGMP content in plasma, X ± SD", "setting": "cGMP [2]; Viagra 6 mg/kg", "result": "4.53 ± 0.67", "unit": "pmol/mL"}, {"measurement": "cGMP content in plasma, X ± SD", "setting": "cGMP [2]; Viagra 12 mg/kg", "result": "4.42 ± 0.97", "unit": "pmol/mL"}, {"measurement": "MIN blood flow rate, change 1 h after administration, X ± SD", "setting": "normal males [3]; [6]", "result": "+0.27 ± 1.01 cm/s"}, {"measurement": "MIN blood flow rate, change 2 h after administration, X ± SD", "setting": "normal males [3]; [6]", "result": "+0.36 ± 0.81 cm/s"}, {"measurement": "TAMX blood flow rate, change 2 h after administration, X ± SD", "setting": "normal males [3]; Viagra 25 mg, n=11, before administration 2.64 ± 1.12", "result": "0.18 ± 1.17", "unit": "cm/s"}, {"measurement": "TAMX blood flow rate, change 1 h after administration, X ± SD", "setting": "normal males [3]; Viagra 25 mg, n=11, before administration 2.64 ± 1.12, P < 0.05", "result": "+1.36 ± 1.43 cm/s"}, {"measurement": "PI (pulsation index), change 1 h after administration, X ± SD", "setting": "normal males [3]; [7]", "result": "−0.19 ± 1.16"}, {"measurement": "PI (pulsation index), change 2 h after administration, X ± SD", "setting": "normal males [3]; [7]", "result": "+0.10 ± 0.85"}, {"measurement": "MAX blood flow rate, change 1 h after administration, X ± SD", "setting": "normal males [3]; Viagra 25 mg, n=11, before administration 9.55 ± 2.58", "result": "+4.36 ± 2.98 cm/s"}, {"measurement": "MIN blood flow rate, change 1 h after administration, X ± SD", "setting": "normal males [3]; [8]", "result": "+0.17 ± 0.72 cm/s"}, {"measurement": "MIN blood flow rate, change 2 h after administration, X ± SD", "setting": "normal males [3]; [8]", "result": "+0.17 ± 0.91 cm/s"}, {"measurement": "TAMX blood flow rate, change 2 h after administration, X ± SD", "setting": "normal males [3]; Viagra 50 mg, n=12, before administration 2.67 ± 0.78", "result": "0.50 ± 0.80", "unit": "cm/s"}, {"measurement": "TAMX blood flow rate, change 1 h after administration, X ± SD", "setting": "normal males [3]; Viagra 50 mg, n=12, before administration 2.67 ± 0.78, P < 0.01", "result": "+1.43 ± 1.27 cm/s"}, {"measurement": "PI (pulsation index), change 1 h after administration, X ± SD", "setting": "normal males [3]; [9]", "result": "+0.24 ± 0.84"}, {"measurement": "PI (pulsation index), change 2 h after administration, X ± SD", "setting": "normal males [3]; [9]", "result": "−0.33 ± 0.72"}, {"measurement": "MAX blood flow rate, change 1 h after administration, X ± SD", "setting": "normal males [3]; Viagra 50 mg, n=12, before administration 9.58 ± 1.08", "result": "+5.67 ± 4.31 cm/s"}, {"measurement": "MAX blood flow rate, change 2 h after administration, X ± SD", "setting": "normal males [3]; Viagra 50 mg, n=12, before administration 9.58 ± 1.08, P < 0.05", "result": "+1.75 ± 2.63 cm/s"}, {"measurement": "increasement of MAX (cavernous arterial maximal blood flow rate)", "setting": "normal males [3]; high dosage groups", "result": 59.2, "unit": "%"}, {"measurement": "increasing rate of TAMX (cavernous average blood flow rate)", "setting": "normal males [3]; low and high dosage groups, 1 hour after administration, P<0.01", "result": "51.5-53.6%"}, {"measurement": "increasement of MAX (cavernous arterial maximal blood flow rate)", "setting": "normal males [3]; low dosage groups", "result": 46.6, "unit": "%"}, {"measurement": "NO contents X ± SD, corpora cavernosa", "setting": "nitric oxide (NO); Viagra high 12 mg/kg, P < 0.05 vs negative control (29.2 ± 5.37)", "result": "48.52 ± 17.95", "unit": "µmol/L"}, {"measurement": "NO contents X ± SD, corpora cavernosa", "setting": "nitric oxide (NO); Viagra low 6 mg/kg, P < 0.01 vs negative control (29.2 ± 5.37)", "result": "44.88 ± 9.47", "unit": "µmol/L"}, {"measurement": "rate of hypotensive function", "setting": "normal males [4]; \"High dosage\" as printed, remarkable only at 1 hour after administration", "result": 8.3, "unit": "%"}, {"measurement": "Diastolic Pressure, change 1 h after administration, X ± SD", "setting": "normal males [4]; [10]", "result": "−2.7 ± 4.7", "unit": "mmHg"}, {"measurement": "Diastolic Pressure, change 2 h after administration, X ± SD", "setting": "normal males [4]; [10]", "result": "−1.8 ± 4.6", "unit": "mmHg"}, {"measurement": "Systolic Pressure, change 2 h after administration, X ± SD", "setting": "normal males [4]; [11]", "result": "−3.5 ± 6.2", "unit": "mmHg"}, {"measurement": "Systolic Pressure, change 1 h after administration, X ± SD", "setting": "normal males [4]; [11]", "result": "−10.0 ± 6.3", "unit": "mmHg"}, {"measurement": "Diastolic Pressure, change 1 h after administration, X ± SD", "setting": "normal males [4]; [12]", "result": "−3.4 ± 7.2", "unit": "mmHg"}, {"measurement": "Diastolic Pressure, change 2 h after administration, X ± SD", "setting": "normal males [4]; [12]", "result": "−2.0 ± 6.4", "unit": "mmHg"}, {"measurement": "Systolic Pressure, change 2 h after administration, X ± SD", "setting": "normal males [4]; [13]", "result": "−2.7 ± 5.6", "unit": "mmHg"}, {"measurement": "Systolic Pressure, change 1 h after administration, X ± SD", "setting": "normal males [4]; [13]", "result": "−7.3 ± 6.1", "unit": "mmHg"}, {"measurement": "decreasing rate of systolic pressure (sp)", "setting": "normal males [4]; high dosage, 1 h after administration, p<0.01", "result": 6.2, "unit": "%"}, {"measurement": "isoenzyme band II area under peak, Peak Area X ± SD", "setting": "[5]; Viagra 6 mg/kg", "result": "0.249 ± 0.126"}, {"measurement": "isoenzyme band II area under peak, Peak Area X ± SD", "setting": "[5]; Viagra 12 mg/kg", "result": "0.198 ± 0.092"}]}
